We go through one compound from patent US20200289611A1, “Methods and Compositions for the Inhibition of Quorum Sensing in Bacterial Infections” (priority 2016, published 2020).

The structures appear in SMILES notation. Entries after “also recorded” stand apart in the source; their conditions may differ. Like-named read-outs stand apart in the source and are kept apart here.

The subject of test [1] is agr systems of Staphylococcus epidermidis isolates of each agr-type. Put plainly: agr-P3 reporter strains of S. epidermidis. It is filed as cell-based.
The test system of test [2] is polymorphonuclear neutrophils (PMN) at MRSA infected skin. As to the kind of experiment: Flow cytometry of PMNs in infected skin. It is filed as in vivo, mice. Here is the method: For skin: abdominal skin ulcerations were excised and incubated in trypsin (0.6% in PBS) for 75 min at 37° C.; then cut into small pieces and incubated in Collagenase type II (0.5 mg/ml RPMI) for 90 min at 37° C. Skin cell suspensions were generated by serial passage of skin fragments through 18 and 20 gauge syringes. IN cell suspensions were generated mincing inguinal LNs with a razor blade before by serial passage of skin fragments through 18 and 20 gauge syringes. AU tissue preps were passed through a 70 am filter before immune cell staining. For whole blood: blood was collected, washed and resuspended in Tris-buffered ammonium chloride to lyse red blood cells.
For staining of skin, LN and whole blood preparations, the following antibodies: Anti-Ly6G (AI8), Anti-Ly6C (HK1.4), -CD11b (M1/70), CD45 (30-F11) were purchased from BioLegend. To block nonspecific binding, cells were incubated with rat anti-mouse CD16/32 FcγRIII/II (2.4G2) and vortexed prior to surface staining. In all experiments, LN or blood cells were collected on a FACS LSR using Cellquest software, and analyzed via FlowJo software. Dead cells were excluded by low forward-scatter and side-light scatter. Spectral overlaps between fluorochrome channels were corrected by automated compensation on singly stained, positive controls for each fluorochrome. In general, 50,000 cells were collected/tube. Flow cytometric analyses of agr-interference in bacterial cultures were conducted.

Another test concerns AgrC. Put plainly: Constitutive AgrC mutant (R235H) assays. The class given is cell-based, Staphylococcus aureus. How it is done:
To investigate the mechanisms by which apicidin inhibits quorum sensing, a series of in vitro assays were conducted to systematically assess the relative contribution of each of the core genetic elements of the agrBDCA operon (FIG. 13A). The membrane embedded peptidase AgrB, is responsible for processing the AgrD pro-peptide (immature AIP) for extracellular release. To determine if apicidin inhibits agr signaling at the level of AIP signal generation, an established system was used whereby the agrBD genes (under sarA P1 promoter regulation), were integrated into an agr null strain derived from the USA300 isolate LAC (40). This construct enables alterations to AIP signal biosynthesis to be clearly delineated from regulation stemming from signal integration. […] Next, the possibility that apicidin interferes with the sensory activity of AIP receptor AgrC was explored. For this, a R235H construct bearing a point mutation that confers constitutive AgrC activity, and thereby enables phospho-activation of AgrA to occur independently of AIP binding, was employed. […] Next, it was determined if AgrA serves as the target of apicidin. To this end, an agr null reporter construct, whereby agrP3 lux activation can only be achieved through the constitutive production of plasmid encoded AgrA […], was employed. […]

The next test relates to MRSA (USA300 LAC). Put plainly: Intradermal MRSA skin infection model. Conditions: for cutaneous bacterial burden: Lux+ MRSA bioluminescence (IVIS). The class given is in vivo, mice (C57BL/6 and BALB/c). How it is done:
At D0, age, strain and sex matched mice were anesthetized with isoflurane, abdominal skin was carefully shaved and exposed skin was cleansed by wiping with an alcohol prep pad. For inoculum preparation, a USA 300 MRSA strain (AH1263), its deletion mutant, LAC strains engineered for constitutive bioluminescence via lux operon insertion (AH3700) or the Lux+ LAC engineered to constitutively express red fluorescent protein (AH 3868), green fluorescent protein (AH3669) were grown to mid-log-phase, pelleted and resuspended in DPBS to achieve 50 μl inoculum mixtures that contained either 2×10^7 CFUs+/−5 μg apicidin (diluted in neat DMSO). Apicidin or DMSO containing inoculums were injected intradermally into abdominal skin. Baseline body weights of mice were measured before infection and every day thereafter for a period of 7 days. For determination of lesion size, digital photos of skin lesions were taken daily and analyzed via ImageJ software.
The potent in vitro activity of apicidin encouraged an assessment of its efficacy in vivo. To this end, an intradermal challenge model was employed by delivering a single 5 μg dose of apicidin along as part of the inoculum suspension containing 2×10^7 MRSA organisms.

The test system of test [3] is agr activation of LAC agr-P3 lux. As to the kind of experiment: Measurement of quorum quenching in vivo (agr-P3 lux reporter strain). On the set-up: species or system mice. How it is done: Inoculum preparation for assessing quorum quenching in vivo: An LAC reporter strain engineered to couple agr activation with bioluminescence, agr-P3 lux (AH2759) was grown in TSB medium+chloramphenicol, overnight at 37° C. in a shaking incubator set to 200 rpm. Overnight cultures were diluted 1:100 TSB+chloramphenicol and subcultured to an optical density of 0.1 at 600 nm hr). Bacterial cells were the pelleted and resuspended in sterile saline. […] Using the image analysis tools in living image software, circular analysis windows (of uniform area) were overlaid onto abdominal regions of interest (as depicted in FIG. 8e) and the corresponding bioluminescence values (total flux) were measured and plotted vs. time after infection.
To this end, mice with an agr-P3 lux reporter strain were challenged and carefully monitored the kinetics of agr activation over a six-hour period immediately following infection.

Turning to `CCC(=O)CCCCC[C@@H]1NC(=O)[C@H]2CCCCN2C(=O)[C@H](C(C)CC)NC(=O)[C@H](Cc2cn(OC)c3ccccc23)NC1=O` (some centres unmarked) [apicidin], the figures for the “quorum quenching in S. epidermidis” value in test [1] and in test [1] (listed as Apicidin) were “extend to multiple staphylococcal species” and “quorum sensing inhibition across S. epidermidis agr types”, respectively. In test [2] (24 hours post infection), the “PMN density / accumulation at infected skin” value is given as “enhanced; also recorded: increased the density of PMNs within infected wounds; also recorded: augmenting their accumulation”. Further, in test [2] (DsRed+ MRSA), the “frequency of PMN able to phagocytose MRSA” value is on record as “Though not significantly, a trend showing increased frequency”. Besides, the “number of PMNs that phagocytosed MRSA” value in test [2] (lesional skin preparations) is “increased; also recorded: overall enhancement MRSA uptake within the entire network of cutaneous PMNs”. In addition, the “frequency of apoptotic PMNs” value in test [2] (lesional skin, one day after infection) is recorded as “decrease in the frequency of apoptotic PMNs”. Also, the “quorum quenching in agr-P3 reporter strain with constitutive AgrC activity” value in the test on AgrC is reported as “maintenance of potent quorum quenching activity”. Also, the “inhibition of lytic activity, constitutive AgrC mutant” value in the test with AgrC (RBC lysis, R235H strain) is given as “dose dependent inhibition of lytic activity”. The cutaneous bacterial burden entry was “reduced; also recorded: decrease in bacterial burden was observed throughout the experiment” in the test on MRSA (USA300 LAC) and “reduced cutaneous bacterial burden” in the test on MRSA (USA300 LAC) (listed as Apicidin). The “CFUs recovered from lesional skin” value in the test on MRSA (USA300 LAC) (one day after infection) is “significantly fewer CFUs were recovered”. Moreover, the “skin lesion / dermatopathology” value in the test with MRSA (USA300 LAC) (single 5 ug dose with 2x107 MRSA, intradermal, 14 days) is reported as “significantly reduced MRSA-induced dermatopathology”. Besides, in test [3] (14-day period), the “skin ulcers after agr-P3 lux reporter strain challenge” value is reported as “dramatic reduction in dermatopathology”. For the same compound, in test [3] (agr-P3 lux reporter, 5 ug apicidin, first hours after infection), the “agr activation in vivo” value is recorded as “reduced quorum sensing activity in vivo; also recorded: significant interference of agr activation in vivo; also recorded: high level of agr interference”.
